This is an account of results in patent US7452688B2, “Transformed cell with enhanced sensitivity to antifungal compound and use thereof” (Sumitomo Chemical Company, Limited, priority 2002, dated 2008).

Assay type in all cases: cell-based, Saccharomyces cerevisiae
Assay [1] relates to AH22 strain. The experiment in a line: Antifungal compound sensitivity test, control yeast AH22 strain (Example 9). The note with it: 30° C. 27 hours. The procedure:
The transformed budding yeast AH22-HIK1 prepared in Example 8 was cultured while shaking at 30° C. for 24 hours in a Glu-Leu medium. As a control, the AH22 strain was similarly cultured while shaking at 30° C. for 24 hours in a Glu medium. The absorbance at 600 nm of a cell suspension of each of the grown transformed budding yeasts was measured, and a cell suspension diluted with each medium to the absorbance of 0.1 was prepared. Further, a cell suspension in which the aforementioned cell suspension of the transformed budding yeast AH22-HIK1 was diluted 50-fold with a Glu-Leu medium, and a cell suspension in which the aforementioned cell suspension of AH22 strain was diluted 50-fold with a Glu medium were prepared. A suspension in which each of compounds (1) to (3) was dissolved in dimethylsulfoxide (DMSO) to the concentration of 200 ppm, a solution in which each of Compounds (4) to (5) was dissolved in dimethylsulfoxide (DMSO) to the concentration of 600 ppm, and a solution in which each of Compounds (6) and (7) was dissolved in dimethylsulfoxide (DMSO) to the concentration of 20 ppm were prepared, and two microplates were prepared in which each 1.0 μL per well of the Compound solution and DMSO as a control were dispensed into two wells. In one microplate among them, each 100 μL of a cell suspension of the transformed budding yeast AH22-hiki which had been prepared by dilution as described above was dispensed, and cultured by allowing to stand at 30° C. for 23 hours. In another microplate, each 100 μL of the cell suspensions of control yeast AH22 strain which had been prepared by dilution as described above was dispensed, and cultured by allowing to stand at 30° C. for 27 hours. After culturing, the absorbance at 600 nm of each well was measured with a microplate reader.
Degree of growths of both of the transformed budding yeasts cultured in the presence of Compounds (1) to (7) and budding yeast as a control therefor are shown in Table 3. Degrees of growths of both of the transformed budding yeasts and budding yeast as a control thereof or are shown by a relative value in percentage, letting the absorbance of 600 nm at the concentration of the Compound of 0 ppm to be […]. It was confirmed that an inhibiting degree of growth of TM182-HIK1 by each test substance was greater than an inhibiting degree of growth of AH22-HIK1 by each test substance, and the TM182-HIK1 was a transformed cell with the enhanced sensitivity to an antifungal-compound as compared with AH22-HIK1.

In assay [2] the test system is AH22 strain. In words: Antifungal compound sensitivity test, control yeast AH22 strain (Example 13). The note with it: 30° C. 24.5 hours, relative value in percentage. The method, then:
(§1) The transformed budding yeast AH22-FoOS1 prepared in Example 12 was cultured while shaking at 30° C. for 18 hours in a Glu-Leu medium. As a control, the AH22 strain was similarly cultured while shaking at 30° C. for 18 hours in a Glu medium. The absorbance at 600 nm of each grown transformed budding yeast in a cell suspension was measured, and cell suspension diluted with sterilized distilled water to the absorbance of 0.1 was prepared. Further, a cell suspension in which the aforementioned cell suspension of the transformed budding yeast AH22-FoOS1 was diluted 50-fold with a Glu-Leu medium, and a cell suspension in which the aforementioned cell suspension of the AH22 strain was diluted 50-fold with a Glu medium were prepared.
(§2) A solution in which each of Compounds (1) to (3) was dissolved in dimethylsulfoxide (DMSO) to the concentration of 600 ppm, a solution in which each of Compounds (4) and (5) was dissolved in dimethylsulfoxide (DMSO) to the concentration of 2000 ppm, and a solution in which Compounds (6) and (7) was dissolved in dimethylsulfoxide (DMSO) to the concentration of 20 ppm were prepared, and two microplates were prepared in which each 1.0 μL per well of the Compound solution and DMSO as a control were dispensed. In one microplate among them, each. 100 μL of cell suspensions of the transformed budding yeast AH22-FoOS1 which had been prepared by dilution as described above was dispensed, and cultured by allowing to stand at 30° C. for 26.5 hours. In another microplate, each 100 μL of cell suspensions of the control yeast AH22 strain which had been prepared by dilution as described above was dispensed, and cultured by allowing to stand at 30° C. for 24.5 hours. After culturing, the absorbance at 600 nm of each well was measured with a microplate reader.
(§3) A degree of growth of the transformed budding yeast is expressed as a relative value in percentage, letting the absorbance at 600 nm at the concentration of the Compound of 0 ppm to be 100. It was confirmed that an inhibiting degree of growth of the transformed budding yeast TM182-FoOS1 by each test substance was grater than an inhibiting degree of growth of the transformed budding yeast AH22-FoOS1 by each test substance, and the transformed budding yeast TM182-FoOS1 was a transformed cell with the enhanced sensitivity to an antifungal compound as compared with the transformed budding yeast AH22-FoOS1.

The subject of assay [3] is transformed budding yeast AH22-FoOS1. In words: Antifungal compound sensitivity test, transformed budding yeast AH22-FoOS1 (Example 13). As to conditions: 30° C. 26.5 hours, relative value in percentage. The method, then:
as §1, §2, §3

Structures are written as SMILES.

Take `CC12CC1(C)C(=O)N(c1cc(Cl)cc(Cl)c1)C2=O` (stereo not drawn) [Compound (1), Procymidone]: in the assay on AH22 strain [1] (final concentration 2.0 ppm), the “Degree of growth of budding yeast (%) AH22 Glu medium” value (“Degree … (%) AH22 Glu medium” below) amounted to 85%. Further, in the assay with AH22 strain [2] (final concentration 6 ppm), the “Degree of growth of budding yeast AH22 Glu medium” value stood at 88%. Besides, the “Degree of growth of budding yeast AH22-FoOS1 Glu-Leu medium” value in assay [3] (final concentration 6 ppm) came to 81%.

For the compound `O=[N+]([O-])c1c(Cl)c(Cl)c(Cl)c(Cl)c1Cl` [Compound (4), Quintozene], the “Degree … (%) AH22 Glu medium” value in the assay with AH22 strain [1] (final concentration 6.0 ppm) is on record as 97%. The “Degree of growth of budding yeast AH22 Glu medium” value in the assay with AH22 strain [2] (final concentration 20 ppm) was 96%. In addition, the “Degree of growth of budding yeast AH22-FoOS1 Glu-Leu medium” value in assay [3] (final concentration 20 ppm) stood at 90%.

On to `CC(C)NC(=O)N1CC(=O)N(c2cc(Cl)cc(Cl)c2)C1=O` [Compound (2), Iprodione], for which, in the assay on AH22 strain [1] (final concentration 2.0 ppm), the “Degree … (%) AH22 Glu medium” value was 96%. The “Degree of growth of budding yeast AH22 Glu medium” value with AH22 strain [2] (final concentration 6 ppm) was 91%. Moreover, in assay [3] (final concentration 6 ppm), the “Degree of growth of budding yeast AH22-FoOS1 Glu-Leu medium” value is 91%.

Regarding `COP(=S)(OC)Oc1c(Cl)cc(C)cc1Cl` [Compound (5), Tolclofos-methyl], the “Degree … (%) AH22 Glu medium” value with AH22 strain [1] (final concentration 6.0 ppm) was found to be 93%. The “Degree of growth of budding yeast AH22 Glu medium” value in the assay with AH22 strain [2] (final concentration 20 ppm) is reported as 80%. Moreover, in assay [3] (final concentration 20 ppm), the “Degree of growth of budding yeast AH22-FoOS1 Glu-Leu medium” value is 71%.

On to `N#Cc1c[nH]cc1-c1cccc2c1OC(F)(F)O2` [Compound (6), Fludioxonil], for which, in the assay with AH22 strain [1] (final concentration 0.2 ppm), the “Degree … (%) AH22 Glu medium” value is 101%. Also, the “Degree of growth of budding yeast AH22 Glu medium” value in the assay on AH22 strain [2] (final concentration 0.2 ppm) was 92%. For the same compound, the “Degree of growth of budding yeast AH22-FoOS1 Glu-Leu medium” value in assay [3] (final concentration 0.2 ppm) amounted to 69%.

As for `N#Cc1c[nH]cc1-c1cccc(Cl)c1Cl` [Compound (7), Fenpiclonil], the “Degree … (%) AH22 Glu medium” value with AH22 strain [1] (final concentration 0.2 ppm) stood at 89%. Also, in the assay on AH22 strain [2] (final concentration 0.2 ppm), the “Degree of growth of budding yeast AH22 Glu medium” value came out at 91%. In assay [3] (final concentration 0.2 ppm), the “Degree of growth of budding yeast AH22-FoOS1 Glu-Leu medium” value was found to be 88%.

For `C=CC1(C)OC(=O)N(c2cc(Cl)cc(Cl)c2)C1=O` (stereo not drawn) [Compound (3), Vinclozolin], the “Degree … (%) AH22 Glu medium” value in the assay on AH22 strain [1] (final concentration 2.0 ppm) was 99%. For the same compound, the “Degree of growth of budding yeast AH22 Glu medium” value with AH22 strain [2] (final concentration 6 ppm) came out at 87%. Also, the “Degree of growth of budding yeast AH22-FoOS1 Glu-Leu medium” value in assay [3] (final concentration 6 ppm) turned out to be 86%.
